Data from ChEMBL document CHEMBL1201862, “PubChem BioAssay data set” (2004).
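Method: 48-hour compound exposure of cells in 96-well plates, five concentrations, linear interpolation of endpoints. GI50 is the concentration that inhibits growth by half.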 The source made the active and inactive calls. Rule as the data show it: active = GI50 up to about 1.1 µM and inactive = higher.

Columns and labels:
Assay in all cases: NCI-60 cell line screen, 48 h
NCI-H460 = test system: NCI-H460
KM12 = test system: KM12
CCRF-CEM = test system: CCRF-CEM
CAKI-1 = test system: CAKI-1
SF-295 = test system: SF-295
SK-OV-3 = test system: SK-OV-3
HL-60 = test system: HL-60
EKVX = test system: EKVX
786-0 = test system: 786-0
SNB-19 = test system: SNB-19
SK-MEL-5 = test system: SK-MEL-5
UO-31 = test system: UO-31
Malme-3M = test system: Malme-3M
SK-MEL-2 = test system: SK-MEL-2
OVCAR-5 = test system: OVCAR-5
DU-145 = test system: DU-145
BT-549 = test system: BT-549
K562 = test system: K562
MOLT-4 = test system: MOLT-4

Measured: GI50

O=C(NNc1ccnc2cc(Cl)ccc12)/C(=C\c1ccccc1Cl)NC(=O)c1ccccc1
inactive: NCI-H460 42.1 µM | KM12 20.5 µM | CCRF-CEM 29.8 µM | CAKI-1 86.3 µM | SF-295 27.5 µM | SK-OV-3 > 100 µM | HL-60 23.4 µM | EKVX 31.8 µM | 786-0 41.6 µM | SNB-19 46.2 µM | SK-MEL-5 23.8 µM | UO-31 38.9 µM | Malme-3M 52.6 µM | SK-MEL-2 19.4 µM | OVCAR-5 39.7 µM | DU-145 55.7 µM | BT-549 33.8 µM | K562 34.6 µM

Cc1nc2cc(F)c(F)cc2[nH]c1=O
inactive: NCI-H460 > 100 µM | KM12 > 100 µM | MOLT-4 > 100 µM | CCRF-CEM > 100 µM | CAKI-1 > 100 µM | SF-295 > 100 µM | SK-OV-3 > 100 µM | HL-60 > 100 µM | EKVX 67.1 µM | 786-0 > 100 µM | SNB-19 > 100 µM | SK-MEL-5 > 100 µM | UO-31 > 100 µM | Malme-3M > 100 µM | SK-MEL-2 > 100 µM | OVCAR-5 > 100 µM | DU-145 > 100 µM | BT-549 > 100 µM | K562 > 100 µM

COC(CNC(=O)CNC(=O)c1ccc(C(F)(F)F)cc1)OC
inactive: NCI-H460 > 100 µM | KM12 > 100 µM | MOLT-4 > 100 µM | CCRF-CEM > 100 µM | CAKI-1 > 100 µM | SF-295 > 100 µM | SK-OV-3 > 100 µM | HL-60 > 100 µM | EKVX > 100 µM | 786-0 > 100 µM | SNB-19 47.9 µM | SK-MEL-5 > 100 µM | UO-31 > 100 µM | Malme-3M > 100 µM | SK-MEL-2 > 100 µM | OVCAR-5 > 100 µM | DU-145 > 100 µM | BT-549 > 100 µM | K562 > 100 µM

O=C1CCCc2c1c1c(n2Cc2ccccc2)-c2ccccc2C1=O
inactive: NCI-H460 25.8 µM | KM12 17.9 µM | CCRF-CEM 31 µM | CAKI-1 21.1 µM | SF-295 15.7 µM | SK-OV-3 18.8 µM | HL-60 23.9 µM | EKVX 27.7 µM | 786-0 21.6 µM | SNB-19 15.4 µM | SK-MEL-5 18.7 µM | UO-31 23.7 µM | Malme-3M 15.3 µM | SK-MEL-2 18.9 µM | OVCAR-5 32.1 µM | DU-145 28.9 µM | BT-549 22.8 µM | K562 13.9 µM
